This note sets out measurements from patent US5091392A, “Substituted (quinolin-2-yl-methoxy)phenyl-acyl-sulphon-amides and -cyanamides, processes for their preparation and their use in medicaments” (Bayer Aktiengesellschaft, priority 1989, dated 1992).

Each structure is given as a SMILES string.

The subject of this assay is lipoxygenase. As to the kind of experiment: lipoxygenase inhibition: release of leucotriene B4 (LTB4) from polymorphonuclear rat leucocytes (PMNL) after Ca ionophore, reverse phase HPLC. Type of assay: cell-based. Particulars: LTB4 release from polymorphonuclear rats leucocytes (PMNL), read-out: LO inhibition IC50. On the procedure:
The pharmacological activity data of the substances according to the invention are determined by the following method: As a measure of the lipoxygenase inhibition, the release of leucotriene B4 (LTB4) from polymorphonuclear rats leucocytes (PMNL) was determined after addition of substances and Ca ionophore by means of reverse phase HPLC according to Borgeat, P. et al., Proc. Nat. Acad. Sci., 76, 2148-2152 (1979). The in vivo activity of the compounds was detected using the mouse ear inflammation model according to Young, J. M. et al., J. of Investigative Dermatology, 82, 367-371 (1984).
As for `CS(=O)(=O)NC(=O)C(c1ccc(OCc2ccc3ccccc3n2)cc1)C1CCCC1` (stereo not drawn) [Example 1], the IC50 (usually the concentration at which inhibition is half-maximal) amounted to 27 nM.

On to `CN(C(=O)C(c1ccc(OCc2ccc3ccccc3n2)cc1)C1CCCC1)S(=O)(=O)C(F)(F)F` (stereo not drawn) [Example 6, N-Methyl-N-{1-[4-(quinolin-2-yl-methoxy)phenyl]-1-cyclopentyl-acetyl}-trifluoromethanesulphonamide], for which the 50% inhibitory concentration (IC50) worked out at 33 nM.

Turning to `N#CNC(=O)C(c1ccc(OCc2ccc3ccccc3n2)cc1)C1CCCC1` (stereo not drawn) [Example 7, N-{1-[4-(Quinolin-2-yl-methoxy)phenyl]-1-cyclopentyl}-acetyl-cyanamide], the IC50 is 24 nM.
